In patent US12286442B2, “Methods and materials for increasing transcription factor eb polypeptide levels” (University of Pittsburgh—Of the Commonwealth System of …, priority 2019, dated 2025):

Experiments:
liver lysosomes = assay: Liver lysosomal activity in mice (dextran blue confocal microscopy, Lamp2 immunostaining); format: in vivo; conditions: female C57BL6 mice, i.p. for 4 days, 50 mg/kg/d or 30 mg/kg/day; for liver lysosomal dextran blue signal (lysosomal number and activity): liver 24 hours after i.v. dextran blue; for liver Lamp2 staining: liver slides
Method: FIG. 7. Compound 15 increases liver lysosomal activity. Female C57BL6 mice were intraperitoneally (i.p.) injected with Cmpd. 15 (50 mg/kg/d) for 4 days. Mice were then intravenously (i.v.) injected with dextran blue. 24 hours later, mice were sacrificed, and livers were removed and imaged through confocal microscopy. White fluorescent signal indicates dextran blue within lysosome and provides a measure of lysosomal number and activity within the hepatic tissue (Upper panels). […] Scale bar: 50 microns.
Female C57BL6 mice were i.p. injected with Compound 15 (30 mg/kg/day) for 4 days. Mice were then i.v. injected with dextran blue. 24 hours later, mice were sacrificed, and liver samples were removed and imaged through confocal microscopy.

TFEB = assay: High content screen measuring TFEB nuclear accumulation (TFEB nuclear/cytosol ratio) in BEAS-2B cells stably expressing TFEB-EGFP; format: cell-based, human; conditions: 18 hours incubation
In short: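 BEAS-2B cells stably expressing TFEB-EGFP (~2300–2500 per well) pre-incubated 8 hours, then exposed to serially diluted compounds (DMEM low glucose, 2% FBS) for 18 hours, PFA-fixed and DAPI-stained. Imaged nuclear (DAPI mask) vs cytosolic (expanded mask) TFEB-GFP; activity = minimal concentration raising nuclear/cytosol ratio by 25%.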

BEAS-2B cells = assay: Toxicity: compound concentration needed to induce greater than 50 percent of cell loss; format: cell-based, human; conditions: 18 hours incubation
In short: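 BEAS-2B cells stably expressing TFEB-EGFP treated with serial compound dilutions for 18 h, then PFA-fixed, DAPI-stained and imaged. Toxicity scored as the concentration causing >50% cell loss, binned as ≥25 μM, <25 and >1 μM, or ≤1 μM ("+++").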

[1] = test system: b-hexosaminidase (a lysosomal enzyme); assay: Secreted b-hexosaminidase activity normalized with cellular b-hexosaminidase activity in Beas2B cells; format: cell-based, human; conditions: indicated concentration, 18 hours
Method: (§1) FIGS. 5A-B. Compound 133 and Compound 115 increased lysosomal protein expression and secretion. A. Beas2B cells were treated with Cmpd. 133 at 10 μM for 24 hours. Cells then were collected and assayed for lysosomal protein gene expression. B. Beas2B cells were treated with Cmpd. 115 at the indicated concentration for 18 hours. Secreted b-hexosaminidase activity (a lysosomal enzyme) then was measured and normalized with cellular b-hexosaminidase activity.

[2] = test system: lysosomal protein gene expression; assay: Lysosomal protein gene expression in Beas2B cells; format: cell-based, human; conditions: 10 μM for 24 hours
Method: as §1

SMILES	liver lysosomal dextran blue signal (lysosomal number and activity) (liver lysosomes)	liver Lamp2 staining (liver lysosomes)	efficacy (minimal compound concentration needed to increase TFEB nuclear/cytosol ratio by 25%) (TFEB)	toxicity (compound concentration needed to induce greater than 50 percent of cell loss) (BEAS-2B cells)	secretion of the lysosomal enzyme beta hexosaminidase [1]	lysosomal protein expression [2]
c1ccc2c(Nc3ccc4ccncc4c3)nc(-c3ccncc3)nc2c1 [Compound 13]	drastically increased	drastically increased	+ (“+” equals >25 μM)	+ (cell loss of greater than 50 percent at a concentration that equals or is greater than 25 μM was represented as)		
c1ccc2c(Nc3ccc4[nH]ccc4c3)nc(-c3ccncc3)nc2c1 [Compound 15]	increases	enhanced signals	+++ (“+++” equals ≤1 μM)	+ (cell loss of greater than 50 percent at a concentration that equals or is greater than 25 μM was represented as)		
COc1cccc2c(Nc3ccc4[nH]ccc4c3)nc(-c3ccncc3)nc12 [Compound 115]			+ (“+” equals >25 μM)	+ (cell loss of greater than 50 percent at a concentration that equals or is greater than 25 μM was represented as)	increased	
c1cnc2nc(-c3ccncc3)nc(Nc3ccc4c(c3)OCO4)c2c1 [Compound 133]			+++ (“+++” equals ≤1 μM)	+ (cell loss of greater than 50 percent at a concentration that equals or is greater than 25 μM was represented as)		increased
Fc1cc(Nc2nc(N3CCOCC3)nc3ncccc23)cc2cc[nH]c12 [Compound 384]			+++ (“+++” equals ≤1 μM)	+ (cell loss of greater than 50 percent at a concentration that equals or is greater than 25 μM was represented as)		
Fc1cc(Nc2nc(-c3cc[nH]c3)nc3ncccc23)cc2cc[nH]c12 [Compound 385]			++ (“++” equals between ≤25 μM and >1 μM)	+ (cell loss of greater than 50 percent at a concentration that equals or is greater than 25 μM was represented as)		
c1cnc2nc(-c3cncs3)nc(Nc3ccc4[nH]ccc4c3)c2c1 [Compound 386]			+++ (“+++” equals ≤1 μM)	+ (cell loss of greater than 50 percent at a concentration that equals or is greater than 25 μM was represented as)		
c1ccc2c(Nc3ccc4[nH]nnc4c3)nc(-c3cncs3)nc2c1 [Compound 387]			+ (“+” equals >25 μM)	+ (cell loss of greater than 50 percent at a concentration that equals or is greater than 25 μM was represented as)		
c1ccc2c(Nc3ccc4cnccc4c3)nc(-c3cncs3)nc2c1 [Compound 388]			+ (“+” equals >25 μM)	+ (cell loss of greater than 50 percent at a concentration that equals or is greater than 25 μM was represented as)		
c1ccc2c(Nc3ccc4cn[nH]c4c3)nc(-c3cncs3)nc2c1 [Compound 389]			+ (“+” equals >25 μM)	+ (cell loss of greater than 50 percent at a concentration that equals or is greater than 25 μM was represented as)		
c1ccc2c(Nc3ccc4cnsc4c3)nc(-c3cncs3)nc2c1 [Compound 390]			+ (“+” equals >25 μM)	+ (cell loss of greater than 50 percent at a concentration that equals or is greater than 25 μM was represented as)		
c1cnc2nc(-c3ccncc3)nc(Nc3ccc4nc(C5CC5)oc4c3)c2c1 [Compound 391]			+++ (“+++” equals ≤1 μM)	+ (cell loss of greater than 50 percent at a concentration that equals or is greater than 25 μM was represented as)		
c1ccc2c(Nc3ccc4sncc4c3)nc(-c3cncs3)nc2c1 [Compound 392]			+ (“+” equals >25 μM)	+ (cell loss of greater than 50 percent at a concentration that equals or is greater than 25 μM was represented as)		
c1ccc2c(Nc3ccc4cnoc4c3)nc(-c3cncs3)nc2c1 [Compound 393]			++ (“++” equals between ≤25 μM and >1 μM)	+ (cell loss of greater than 50 percent at a concentration that equals or is greater than 25 μM was represented as)		
c1ccc2c(Nc3ccc4oncc4c3)nc(-c3cncs3)nc2c1 [Compound 394]			+ (“+” equals >25 μM)	+ (cell loss of greater than 50 percent at a concentration that equals or is greater than 25 μM was represented as)		
Fc1cc(Nc2nc(-c3cncs3)nc3ccccc23)cc2cc[nH]c12 [Compound 395]			+++ (“+++” equals ≤1 μM)	+ (cell loss of greater than 50 percent at a concentration that equals or is greater than 25 μM was represented as)		
Fc1cc(Nc2nc(-c3cncs3)nc3ncccc23)cc2cc[nH]c12 [Compound 396]			+++ (“+++” equals ≤1 μM)	+ (cell loss of greater than 50 percent at a concentration that equals or is greater than 25 μM was represented as)		
c1cc(-c2cc3cnccc3c(Nc3ccc4[nH]ccc4c3)n2)ccn1 [Compound 397]			++ (“++” equals between ≤25 μM and >1 μM)	+ (cell loss of greater than 50 percent at a concentration that equals or is greater than 25 μM was represented as)		
c1cc(-c2cc3cnccc3c(Nc3ccc4nc(C5CC5)sc4c3)n2)ccn1 [Compound 398]			+++ (“+++” equals ≤1 μM)	+ (cell loss of greater than 50 percent at a concentration that equals or is greater than 25 μM was represented as)		
c1cc(-c2cc3cnccc3c(Nc3ccc4[nH]c(C5CC5)cc4c3)n2)ccn1 [Compound 399]			+++ (“+++” equals ≤1 μM)	+ (cell loss of greater than 50 percent at a concentration that equals or is greater than 25 μM was represented as)		
Cc1nc2ccc(Nc3nc(-c4ccncc4)cc4ncccc34)cc2s1 [Compound 400]			+++ (“+++” equals ≤1 μM)	+ (cell loss of greater than 50 percent at a concentration that equals or is greater than 25 μM was represented as)		
CC(=O)Nc1ccc(Nc2nc(-c3ccncc3)cc3ncccc23)cc1O [Compound 401]			+++ (“+++” equals ≤1 μM)	+ (cell loss of greater than 50 percent at a concentration that equals or is greater than 25 μM was represented as)		
c1cnc2cc(-c3ccncc3)nc(Nc3ccc4nc(C5CCC5)sc4c3)c2c1 [Compound 402]			+++ (“+++” equals ≤1 μM)	+ (cell loss of greater than 50 percent at a concentration that equals or is greater than 25 μM was represented as)		
